Data on four molecules can be found in ChEMBL document CHEMBL5543127, “Design, Synthesis, and Biological Evaluation of 2-Phenoxyalkylhydrazide Benzoxazole Derivatives as Quorum Sensing Inhibitors with Strong Antibiofilm Effect” (J Med Chem, 2024).

One data set relates to Bacillus subtilis. Nature of the data set: Anti-microbial activity against Bacillus subtilis ATCC9372 incubated for 20 hrs By CLSI based micro-dilution method. In kind it is functional.
In another data set the test system is Bacillus pumilus. The data set can be described thus: Anti-microbial activity against Bacillus pumilus CMCC63202 incubated for 20 hrs By CLSI based micro-dilution method. The class given is functional.
Data set [1] deals with Staphylococcus aureus. The data set can be described thus: Anti-microbial activity against erythromycin-susceptible Staphylococcus aureus ATCC25923 incubated for 20 hrs By CLSI based micro-dilution method. In kind it is functional.
For data set [2], the system named is Staphylococcus aureus. The data set can be described thus: Anti-microbial activity against methicillin-resistant Staphylococcus aureus ATCC43300 incubated for 20 hrs By CLSI based micro-dilution method. In kind it is functional. Background: Dilution methods test growth across graded concentrations, often in twofold steps.
Data set [3] relates to Pseudomonas aeruginosa. Nature of the data set: Anti-microbial activity against penicillin-susceptible Pseudomonas aeruginosa 27853 incubated for 20 hrs By CLSI based micro-dilution method. In kind it is functional.
The test system of a further data set is Escherichia coli. The data set can be described thus: Anti-microbial activity against penicillin-susceptible Escherichia coli ATCC25922 incubated for 20 hrs By CLSI based micro-dilution method. The class given is functional.
The subject of data set [4] is Pseudomonas aeruginosa. The data set can be described thus: Anti-microbial activity against Pseudomonas aeruginosa PAO1 incubated for 20 hrs By CLSI based micro-dilution method. The class given is functional.
A short description of data set [5]: Inhibition of quorum sensing system in Pseudomonas aeruginosa PAO1 at logarithmic growth period assessed as inhibition of pyocyanin production at 102.4 microg/ml incubated for 18 hrs by pyocyanin inhibition assay. The settings on record: dose 102.4 µg/ml.
In data set [6] the test system is Pseudomonas aeruginosa. The data set can be described thus: Inhibition of protease in logarithmic growth phase Pseudomonas aeruginosa PAO1 assessed as inhibition rate at 102.4 microg/ml measured after 32 hrs. The settings on record: dose 102.4 µg/ml.
Data set [7] deals with Pseudomonas aeruginosa. Nature of the data set: Anti-virulence activity against logarithmic growth phase Pseudomonas aeruginosa PAO1 assessed as inhibition of Rhamnolipid production at 102.4 microg/ml measured after 24 hrs. The class given is functional.
The test system of data set [8] is Pseudomonas aeruginosa. Nature of the data set: Antibiofilm activity against logarithmic growth phase Pseudomonas aeruginosa PAO1 assessed as inhibition of biofilm formation at 16 microg/ml incubated for 20 hrs by crystal violet staining based analysis. In kind it is functional.
For data set [9], the system named is Pseudomonas aeruginosa. The data set can be described thus: Antibiofilm activity against logarithmic growth phase Pseudomonas aeruginosa PAO1 assessed as inhibition of biofilm formation at 32 microg/ml incubated for 20 hrs by crystal violet staining based analysis. In kind it is functional.
In data set [10] the test system is Pseudomonas aeruginosa. Nature of the data set: Induction of anti-bacterial effect in Pseudomonas aeruginosa PAO1 assessed as synergistic effect by measuring reduction in bacterial survival in presence of ciprofloxacin measured after 24 hrs incubation. The class given is functional, organism-based. The settings on record: dose 8-128 µg/ml.
In data set [11] the test system is Pseudomonas aeruginosa. Nature of the data set: Induction of anti-bacterial effect in Pseudomonas aeruginosa PAO1 assessed as synergistic effect by measuring reduction in bacterial survival in presence of clarithromycin measured after 24 hrs incubation. In kind it is functional, organism-based. The settings on record: dose 8-128 µg/ml.
Data set [12] relates to Pseudomonas aeruginosa. Nature of the data set: Induction of anti-bacterial effect in Pseudomonas aeruginosa PAO1 assessed as synergistic effect by measuring reduction in bacterial survival in presence of ciprofloxacin at 128 microg/ml measured after 24 hrs incubation relative to control. The class given is functional. The conditions noted are these: dose 128 µg/ml.
For data set [13], the system named is Pseudomonas aeruginosa. The data set can be described thus: Induction of anti-bacterial effect in Pseudomonas aeruginosa PAO1 assessed as synergistic effect by measuring reduction in bacterial survival in presence of ciprofloxacin at 16 to 128 microg/ml measured after 24 hrs incubation. The class given is functional, organism-based. The conditions noted are these: dose 16-128 µg/ml.

In data set [14] the test system is Pseudomonas aeruginosa. Nature of the data set: Induction of anti-bacterial effect in Pseudomonas aeruginosa PAO1 assessed as synergistic effect by measuring reduction in bacterial survival in presence of clarithromycin at 16 to 128 microg/ml measured after 24 hrs incubation. The settings on record: dose 16-128 µg/ml. In kind it is functional, organism-based.

Another data set deals with Erythrocyte. The data set can be described thus: Hemolytic activity in mouse RBC isolated from eye ball assessed as hemolysis at 256 microg/ml incubated for 1 hr. The conditions noted are these: dose 256 µg/ml. The class given is toxicity, cell-based.
Data set [15] relates to Pseudomonas aeruginosa. Nature of the data set: Anti-bacterial effect in Pseudomonas aeruginosa PAO1 assessed as reduction in bacterial survival by measuring inhibition rate at 0.4 microg/ml measured after 24 hrs incubation relative to control. The class given is functional.
The test system of data set [16] is Pseudomonas aeruginosa. Nature of the data set: Antibacterial activity against Pseudomonas aeruginosa PAO1 at logarithmic growth phase assessed as growth inhibition at 153.6 microg/ml measured upto 25 hrs by growth curve assay. In kind it is functional, organism-based. The conditions noted are these: dose 153.6 µg/ml.
Data set [17] relates to Pseudomonas aeruginosa. The data set can be described thus: Induction of morphological changes in biofilm of Pseudomonas aeruginosa PAO1 assessed as biofilm damage at 102.4 microg/ml measured after 24 hrs by scanning electron microscopy. In kind it is functional, organism-based. The conditions noted are these: dose 102.4 µg/ml.
In data set [18] the test system is Pseudomonas aeruginosa. Nature of the data set: Induction of cell wall rupture in Pseudomonas aeruginosa PAO1 at 102.4 microg/ml measured after 24 hrs by scanning electron microscopy. In kind it is functional, organism-based. The settings on record: dose 102.4 µg/ml.
In data set [19] the test system is Pseudomonas aeruginosa. The data set can be described thus: Induction of cell morphological change in Pseudomonas aeruginosa PAO1 at 102.4 microg/ml measured after 24 hrs by scanning electron microscopy. The class given is functional, organism-based. The conditions noted are these: dose 102.4 µg/ml.
Data set [20] deals with Pseudomonas aeruginosa. Nature of the data set: Inhibition of swarming movement of Pseudomonas aeruginosa PAO1 assessed as movement state of bacterial clusters after 24 hrs by swarming motility assay. The class given is functional, organism-based. The conditions noted are these: dose 25.6-102.4 µg/ml.
For data set [21], the system named is Pseudomonas aeruginosa. Nature of the data set: In vivo anti-bacterial effect in Pseudomonas aeruginosa PAO1 infected in Kunming mouse assessed as reduction in bacterial survival at 25 mg/kg, ip measured after 1 hr incubation. The class given is functional, organism-based.
Data set [22] has as its system Pseudomonas aeruginosa. Nature of the data set: In vivo induction of anti-bacterial effect in Pseudomonas aeruginosa PAO1 infected in Kunming mouse assessed as synergistic effect by measuring reduction in bacterial survival in presence of 15 mg/kg ciprofloxacin at 25 mg/kg, ip measured after 1 hr incubation. The class given is functional, organism-based.
Data set [23] relates to Pseudomonas aeruginosa. Nature of the data set: In vivo induction of anti-bacterial effect in Pseudomonas aeruginosa PAO1 infected in Kunming mouse assessed as synergistic effect by measuring reduction in bacterial survival in presence of 15 mg/kg ciprofloxacin at 5 mg/kg, ip measured after 1 hr incubation relative to ciprofloxacin alone. The class given is functional, organism-based.

The nature of data set [24]: Inhibition of quorum sensing system in Pseudomonas aeruginosa PAO1-lasB-gfp assessed as reduction in fluorescence intensity measured upto 12 hrs by GFP reporter strain assay. The settings on record: dose 32-128 µg/ml.
Data set [25] can be described thus: Inhibition of quorum sensing system in Pseudomonas aeruginosa PAO1-pqsA-gfp assessed as reduction in fluorescence intensity measured upto 12 hrs by GFP reporter strain assay. The settings on record: dose 32-128 µg/ml.
Data set [26] in a line: Inhibition of quorum sensing system in Pseudomonas aeruginosa PAO1- rhlA-gfp assessed as reduction in fluorescence intensity measured upto 12 hrs by GFP reporter strain assay. The conditions noted are these: dose 32-128 µg/ml.
Data set [27] can be described thus: Inhibition of quorum sensing system in Pseudomonas aeruginosa PAO1-gfp assessed as reduction in fluorescence intensity at 32 to 128 microg/ml measured upto 12 hrs by GFP reporter strain assay. The conditions noted are these: dose 32-128 µg/ml.
Data set [28] relates to Pseudomonas aeruginosa. Nature of the data set: Antibacterial activity against Pseudomonas aeruginosa 27853 at logarithmic growth phase assessed as growth inhibition at 153.6 microg/ml measured upto 25 hrs by growth curve assay. The settings on record: dose 153.6 µg/ml. The class given is functional, organism-based.

Structures are written as SMILES. In brackets after ≈: the same amount, converted by molar mass. Activity calls are given as the source filed them. A value given as a limit tells only on which side of the number the result lay.

With `O=C(CCCCOc1cccc(F)c1)NNc1nc2ccccc2o1`, the MIC in the data set on Bacillus subtilis is over 512 mg/L; in the data set with Bacillus pumilus, over 512 mg/L; in the data set with Staphylococcus aureus [1], 512 mg/L (≈ 1490 µM); in the data set with Staphylococcus aureus [2], over 512 mg/L; in the data set on Pseudomonas aeruginosa [3], 512 mg/L (≈ 1490 µM); in the data set on Escherichia coli, over 512 mg/L. For the same molecule, in the data set with Pseudomonas aeruginosa [4], the MIC was over 512 mg/L. Also, the inhibition entry (in data set [5]; with Pseudomonas aeruginosa [8] (dose 16.0 µg/ml)) was “Active” each time. The inhibition result in the data set on Pseudomonas aeruginosa [6] is “inactive”. Besides, in the data set on Pseudomonas aeruginosa [7], the inhibition at 102.4 µg/mL came to 52.1%. The inhibition at 32 µg/mL with Pseudomonas aeruginosa [9] is over 25.4%. Besides, the Activity entry was “Dose-Dependent Effect” in the data set on Pseudomonas aeruginosa [10], “Dose-Dependent Effect” in the data set with Pseudomonas aeruginosa [11], over 90% in the data set with Pseudomonas aeruginosa [12] and “Non-Toxic” in the data set on Erythrocyte. The outcome in the data set with Pseudomonas aeruginosa [13] and with Pseudomonas aeruginosa [14] was Active.

Take `O=C(O)c1cn(C2CC2)c2cc(N3CCNCC3)c(F)cc2c1=O` [CIPROFLOXACIN]: the inhibition at 0.4 µg/mL with Pseudomonas aeruginosa [15] came to 42%.

With `O=C(COc1ccc(F)cc1)NNc1nc2ccccc2o1`, the MIC was 512 mg/L (≈ 1700 µM) in the data set with Bacillus subtilis; over 512 mg/L with Bacillus pumilus; over 512 mg/L in the data set on Staphylococcus aureus [1]; over 512 mg/L in the data set on Staphylococcus aureus [2]; 512 mg/L (≈ 1700 µM) against Pseudomonas aeruginosa [3]; over 512 mg/L against Escherichia coli. The molecule also returned a minimum inhibitory concentration (MIC) in the data set with Pseudomonas aeruginosa [4] of 512 mg/L (≈ 1700 µM). The inhibition is 43.6% in data set [5]; 10% with Pseudomonas aeruginosa [6]; “Dose-Dependent Effect” in the data set with Pseudomonas aeruginosa [20]; “Dose-Dependent Effect” in data set [24]; “Dose-Dependent Effect” in [25]; “Dose-Dependent Effect” in [26]. In addition, the inhibition entry in data set [27] is “Dose-Dependent Effect”. Also, the result in the data set with Pseudomonas aeruginosa [16], with Pseudomonas aeruginosa [18], in the data set on Pseudomonas aeruginosa [19], with Pseudomonas aeruginosa [21] and with Pseudomonas aeruginosa [28] was inactive. In addition, the inhibition at 16 µg/mL with Pseudomonas aeruginosa [8] is over 50%. In the data set with Pseudomonas aeruginosa [9], the inhibition at 32 µg/mL is over 76.6%. Besides, the result with Pseudomonas aeruginosa [17], in the data set with Pseudomonas aeruginosa [13], with Pseudomonas aeruginosa [14], with Pseudomonas aeruginosa [22] and with Pseudomonas aeruginosa [23] was Active. In addition, the Activity result is “Dose-Dependent Effect” in the data set on Pseudomonas aeruginosa [10], “Dose-Dependent Effect” in the data set with Pseudomonas aeruginosa [11], over 90% with Pseudomonas aeruginosa [12] and “Non-Toxic” with Erythrocyte.

For the molecule `CC[C@H]1OC(=O)[C@H](C)[C@@H](O[C@H]2C[C@@](C)(OC)[C@@H](O)[C@H](C)O2)[C@H](C)[C@@H](O[C@@H]2O[C@H](C)C[C@H](N(C)C)[C@H]2O)[C@](C)(O)C[C@@H](C)CN(C)[C@H](C)[C@@H](O)[C@]1(C)O` [AZITHROMYCIN], the MIC came out at 0.25 mg/L (≈ 0.334 µM) against Bacillus subtilis; 0.25 mg/L (≈ 0.334 µM) against Bacillus pumilus; 0.25 mg/L (≈ 0.334 µM) against Staphylococcus aureus [1]; 256 mg/L (≈ 342 µM) in the data set on Staphylococcus aureus [2]; 16 mg/L (≈ 21.4 µM) in the data set on Pseudomonas aeruginosa [3]; 128 mg/L (≈ 171 µM) in the data set on Escherichia coli. In the data set on Pseudomonas aeruginosa [4], this molecule returned an MIC of 256 mg/L (≈ 342 µM). For the same molecule, the outcome in the data set with Pseudomonas aeruginosa [17] was Active.

In general, MIC refers to the smallest concentration in the dilution series that meets the test's criterion for growth inhibition. A higher MIC goes with weaker potency. Usually inhibition stands for the share of the control response that was lost under treatment.
